Assay results reported in ChEMBL document CHEMBL6109084 (Eur J Med Chem, 2025).
In brackets after ≈: the same amount, converted by molar mass. Activity calls are given as the source filed them. The rule behind the calls is not given here.

Columns and labels:
[1] = Metabolic stability in human liver microsome assessed as half life; format: ADME; details: liver microsomes
[2] = tested on: Plasma; experiment: Anticoagulant activity in citrated human plasma assessed as prolongation of prothrombin time incubated for 3 mins by PT reagent based automated coagulometric analysis; format: functional, cell-free
[3] = target: Plasma kallikrein (Homo sapiens, UniProt P03952); experiment: Inhibition of PKal (unknown origin) using H-D-Pro-Phe-Arg-pNA.2HCl as substrate incubated for 30 mins followed by substrate addition and measured after 60 mins by microplate reader analysis
[4] = target: T1, Coagulation factor XII (Homo sapiens, UniProt P00748); experiment: Inhibition of FXIIa (unknown origin) using H-D-ProPhe-Arg-pNA.2HCl as substrate incubated for 30 mins followed by substrate addition and measured after 60 mins by microplate reader analysis
T1 sequence (P00748 whole entry): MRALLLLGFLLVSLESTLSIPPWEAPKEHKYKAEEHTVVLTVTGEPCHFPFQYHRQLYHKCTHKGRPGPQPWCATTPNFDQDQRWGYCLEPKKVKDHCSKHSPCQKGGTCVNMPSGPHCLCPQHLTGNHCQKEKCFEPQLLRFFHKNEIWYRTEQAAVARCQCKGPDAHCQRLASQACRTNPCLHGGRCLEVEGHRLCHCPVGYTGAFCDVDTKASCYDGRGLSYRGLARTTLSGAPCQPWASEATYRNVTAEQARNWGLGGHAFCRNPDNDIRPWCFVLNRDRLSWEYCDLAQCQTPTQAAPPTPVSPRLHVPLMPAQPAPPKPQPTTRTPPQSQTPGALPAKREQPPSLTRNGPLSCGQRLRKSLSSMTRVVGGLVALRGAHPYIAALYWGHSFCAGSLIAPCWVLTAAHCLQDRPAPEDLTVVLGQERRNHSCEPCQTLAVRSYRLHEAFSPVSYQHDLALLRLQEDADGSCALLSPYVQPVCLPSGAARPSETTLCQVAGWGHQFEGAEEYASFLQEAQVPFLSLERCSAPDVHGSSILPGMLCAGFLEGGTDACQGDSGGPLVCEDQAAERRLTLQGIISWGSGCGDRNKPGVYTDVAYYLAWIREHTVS

[5] = target: Plasminogen (Homo sapiens, UniProt P00747); experiment: Inhibition of plasmin (unknown origin) using PyroGlu-Phe-Lys-pNA.HCl as substrate incubated for 30 mins followed by substrate addition and measured after 60 mins by microplate reader analysis
[6] = target: Chymotrypsin (Homo sapiens, UniProt Q99895+P17538+P40313+Q6GPI1); experiment: Inhibition of chymotrypsin (unknown origin) using N-Suc-Ala-Ala-Pro-Phe-pNA as substrate incubated for 30 mins followed by substrate addition and measured after 60 mins by microplate reader analysis; format: protein assay
[7] = tested on: HepG2; experiment: Cytotoxicity against human HepG2 cells assessed as reduction in cell viability at 1 to 50 uM incubated for 24 hrs by MTT assay; format: toxicity, cell-based; details: hepg2, 24 h, dose 1-50 µM
[8] = tested on: Mus musculus; experiment: Antithrombotic activity in po dosed FeCl3-induced carotid arterial thrombosis C57BL/6J mouse model assessed as increase in peak velocity measured after 0.5 hrs; format: functional, organism-based; details: dose 5-30 mg/kg
[9] = Toxicity in C57BL/6J mouse assessed as prolongation of bleeding time at 30 to 60 mg/kg, IG measured after 30 mins by tail bleeding assay; format: organism-based; details: in vivo, po, 0.5 h, dose 30-60 mg/kg
[10] = Acute toxicity in C57BL/6J mouse assessed as pathological changes in liver at 60 to 100 mg/kg, po administered as single dose for 14 days by H and E staining based analysis; format: organism-based; details: in vivo, 336 h, dose 60-100 mg/kg, time 14 day
[11] = Acute toxicity in C57BL/6J mouse assessed as effect on serum AST level at 60 to 100 mg/kg, po administered as single dose for 14 days; format: organism-based; details: in vivo, 336 h, dose 60-100 mg/kg, time 14 day
[12] = Acute toxicity in C57BL/6J mouse assessed as effect on serum ALT level at 60 to 100 mg/kg, po administered as single dose for 14 days; format: organism-based; details: in vivo, 336 h, dose 60-100 mg/kg, time 14 day
[13] = Acute toxicity in C57BL/6J mouse assessed as effect on serum ALP level at 60 to 100 mg/kg, po administered as single dose for 14 days; format: organism-based; details: in vivo, 336 h, dose 60-100 mg/kg, time 14 day
[14] = tested on: Oryctolagus cuniculus; experiment: Antithrombotic activity in FeCl3-induced carotid arterial thrombosis male New Zealand white rabbits model assessed as reduction in dry thrombus weight at 2 mg/kg, iv preincubated for 30 mins followed by FeCl3 application for 5 and measured after 45 mins relative to control; format: functional; set-up: scale not given: the % may be the effect or the level left; details: time 80 min, 1.333 h
[15] = Apparent permeability in MDCK-MDR1 cells; format: ADME, cell-based, Canis lupus familiaris; details: dog
[16] = tested on: Plasma; experiment: Anticoagulant activity in mouse plasma assessed as prolongation of activated partial thromboplastin time incubated for 3 mins by aPTT reagent based automated coagulometric analysis; format: functional; details: 0.05 h
[17] = Selectivity index, ratio of IC50 for inhibition of FXIIa (unknown origin) using H-D-ProPhe-Arg-pNA.2HCl as substrate to IC50 for inhibition of human FXIa using p-Glu-Pro-Arg-pNA.HCl as substrate
[18] = Selectivity index, ratio of IC50 for inhibition of thrombin (unknown origin) using H-D-Phe-Pip-Arg-pNA.2HCl as substrate to IC50 for inhibition of human FXIa using p-Glu-Pro-Arg-pNA.HCl as substrate
[19] = Selectivity index, ratio of IC50 for inhibition of FXa (unknown origin) using Z-D-Arg-Gly-Arg-pNA.2HCl as substrate to IC50 for inhibition of human FXIa using p-Glu-Pro-Arg-pNA.HCl as substrate
[20] = Selectivity index, ratio of IC50 for inhibition of plasmin (unknown origin) using PyroGlu-Phe-Lys-pNA.HCl as substrate to IC50 for inhibition of human FXIa using p-Glu-Pro-Arg-pNA.HCl as substrate
[21] = Selectivity index, ratio of IC50 for inhibition of tPA (unknown origin) using H-D-Ile-Pro-Arg-pNA-2HCl as substrate to IC50 for inhibition of human FXIa using p-Glu-Pro-Arg-pNA.HCl as substrate
[22] = Acute toxicity in C57BL/6J mouse assessed as effect on heart weight at 60 to 100 mg/kg, po measured after 24 hrs; format: organism-based; details: in vivo, dose 60-100 mg/kg
[23] = Acute toxicity in C57BL/6J mouse assessed as effect on liver weight at 60 to 100 mg/kg, po measured after 24 hrs; format: organism-based; details: in vivo, dose 60-100 mg/kg
[24] = Acute toxicity in C57BL/6J mouse assessed as effect on spleen weight at 60 to 100 mg/kg, po measured after 24 hrs; format: organism-based; details: in vivo, dose 60-100 mg/kg
[25] = Acute toxicity in C57BL/6J mouse assessed as effect on kidney weight at 60 to 100 mg/kg, po measured after 24 hrs; format: organism-based; details: in vivo, dose 60-100 mg/kg
[26] = Acute toxicity in C57BL/6J mouse assessed as effect on plasma ALP level at 60 to 100 mg/kg, po measured after 24 hrs; format: organism-based; details: in vivo, dose 60-100 mg/kg
[27] = physchem; details: aqueous medium, pH 7.4
Description: Aqueous solubility of the compound in DMSO at pH 7.4 incubated for 12 hrs by turbidimetric based UV spectrophotometric analysis

Chain of Plasminogen (P00747 97-580 limits assumed): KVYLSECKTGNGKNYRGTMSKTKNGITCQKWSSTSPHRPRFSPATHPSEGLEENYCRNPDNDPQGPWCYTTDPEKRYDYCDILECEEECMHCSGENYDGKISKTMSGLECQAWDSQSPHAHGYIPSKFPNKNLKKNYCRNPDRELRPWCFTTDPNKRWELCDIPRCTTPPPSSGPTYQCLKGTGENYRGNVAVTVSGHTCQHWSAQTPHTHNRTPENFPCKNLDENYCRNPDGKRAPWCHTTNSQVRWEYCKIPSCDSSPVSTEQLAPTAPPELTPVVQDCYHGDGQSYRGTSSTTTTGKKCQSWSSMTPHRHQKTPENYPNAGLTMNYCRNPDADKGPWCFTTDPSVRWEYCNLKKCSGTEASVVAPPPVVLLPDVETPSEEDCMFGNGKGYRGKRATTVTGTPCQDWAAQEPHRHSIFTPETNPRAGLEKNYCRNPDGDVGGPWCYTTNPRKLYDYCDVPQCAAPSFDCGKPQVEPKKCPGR
Chain of Plasminogen (P00747 581-810 limits assumed): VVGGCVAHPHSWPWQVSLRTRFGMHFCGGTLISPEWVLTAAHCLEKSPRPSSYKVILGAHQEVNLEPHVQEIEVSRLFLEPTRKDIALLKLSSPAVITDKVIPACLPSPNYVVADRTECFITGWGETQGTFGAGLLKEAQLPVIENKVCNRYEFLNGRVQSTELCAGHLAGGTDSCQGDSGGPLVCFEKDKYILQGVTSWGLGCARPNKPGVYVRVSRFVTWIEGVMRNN
Chain of Plasma kallikrein (P03952 20-390 limits assumed): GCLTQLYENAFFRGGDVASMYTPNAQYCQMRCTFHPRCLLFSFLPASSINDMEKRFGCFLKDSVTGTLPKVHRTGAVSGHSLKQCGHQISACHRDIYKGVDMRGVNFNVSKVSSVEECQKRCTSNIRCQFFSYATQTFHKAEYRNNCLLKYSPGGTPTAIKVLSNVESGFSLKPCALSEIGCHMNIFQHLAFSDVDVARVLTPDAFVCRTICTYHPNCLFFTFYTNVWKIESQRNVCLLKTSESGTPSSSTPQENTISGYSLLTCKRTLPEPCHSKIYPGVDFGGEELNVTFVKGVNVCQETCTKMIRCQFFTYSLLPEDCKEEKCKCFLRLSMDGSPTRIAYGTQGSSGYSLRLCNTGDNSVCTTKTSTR
Chain of Plasma kallikrein (P03952 391-638 limits assumed): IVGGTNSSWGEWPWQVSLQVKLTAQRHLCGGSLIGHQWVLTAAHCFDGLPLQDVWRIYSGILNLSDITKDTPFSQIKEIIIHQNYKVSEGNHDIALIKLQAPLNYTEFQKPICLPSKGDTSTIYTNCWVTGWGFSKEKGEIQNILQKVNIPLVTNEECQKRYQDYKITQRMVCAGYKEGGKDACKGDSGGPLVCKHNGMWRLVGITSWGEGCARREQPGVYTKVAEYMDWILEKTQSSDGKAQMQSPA

In the case of `COc1cn(Cc2cc(-c3ccc(N)nc3F)ccn2)c(=O)cc1-c1cc(Cl)ccc1-n1cnnn1`, the half-life [1] is reported as over 3 h, the Activity [2] is reported as “inactive” and the IC50 [3] is reported as 222 nM. It also gave an IC50 [4] of over 1000 nM, an IC50 [5] of over 1000 nM and an IC50 [6] of over 1000 nM. The Activity [7] was “Non-toxic”, the Activity [8] was “Dose-dependent-effect” and the Activity [9] was “Non-toxic”. The Activity [10] was “Non-toxic”, the Activity [11] was “Non-toxic” and the Activity [12] was “Non-toxic”. The Activity [13] was “Non-toxic”, the Activity [14] was over 50% and the Papp [15] was 0.5 ×10⁻⁶ cm/s. It also gave an EC1.5 [16] of 1.6 µM, a Ratio IC50 [17] of over 1000 and a Ratio IC50 [18] of over 1000. For the same compound, the Ratio IC50 [19] was over 1000, the Ratio IC50 [20] was over 1000 and the Ratio IC50 [21] was over 1000. The Activity [22] was “Non-toxic”, the Activity [23] was “Non-toxic” and the Activity [24] was “Non-toxic”. For the same compound, the Activity [25] was “Non-toxic”, the Activity [26] was “Non-toxic” and the solubility kinetic at 12 h [27] was 122 µg/mL (≈ 242 µM).
